# Where two headings read alike, the source gives them in different places.
# Legend:
# [1] = system: S. epidermidis RP62A SpsIB(S31P); assay: In vitro antimicrobial activity, MIC by broth micro-dilution; assay type: cell-based
# S. agalactiae COH-1 = assay: as above; assay type: cell-based
# S. aureus ATCC 29213 = assay: as above; assay type: cell-based
# S. pyogenes ATCC 19615 = assay: as above; assay type: cell-based
# S. epidermidis RP62A = assay: as above; assay type: cell-based; conditions: S. epidermidis RP62A
# S. pneumoniae R800 = assay: as above; assay type: cell-based
# Method in brief: (§1)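 CLSI broth micro-dilution MIC against two-fold serial compound dilutions. Inoculum came from colonies grown 24 h at 35° C. or 28° C., suspended in cation-adjusted Mueller Hinton broth at 1*10^7 CFU/ml, of which 5 μl was added per 100 μl well. LepB(P84L) is a proline-mutant SPase strain with heightened arylomycin susceptibility.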
# [2] = system: S. epidermidis RP62A SpsIB(S29P); assay: as above; assay type: cell-based
# S. agalactiae ATCC 13813 = assay: as above; assay type: cell-based
# [3] = system: S. aureus NCTC-8325 SpsB(P295); assay: as above; assay type: cell-based
# C. glutamicum DSM 44475 = assay: as above; assay type: cell-based
# S. pyogenes M15448 = assay: as above; assay type: cell-based
# Method in brief: as §1
# [4] = system: E. coli MIG1655 LepB(P84L); assay: as above; assay type: cell-based
# Method in brief: as §1
# [5] = system: S. epidermidis ATCC 12228; assay: as above; assay type: cell-based
# S. pneumoniae D39 = assay: as above; assay type: cell-based; conditions: S. pneumoniae D39
# [6] = system: P. aeruginosa PA01 LepB(P84L); assay: as above; assay type: cell-based
# Method in brief: as §1
# S. aureus SPase = target: T1, S. aureus SPase (Staphylococcus aureus, UniProt P0A070); assay: Steady state binding constant (Kd) determination by fluorescence increase
# T1 construct: Full length His-tagged S. aureus SPase protein was expressed similarly; His-tag; made in house; host or cells: E. coli BL21(DE3)
# Procedure: (§2) Full length His-tagged E. coli SPase proteins were expressed in E. coli BL21(DE3) containing the plasmid pET23-lepB, P. A. Smith et al. Chem Biol 2010, 1223-1231. Briefly, saturated overnight cultures grown in 20 ml of Luria-Bertani medium supplemented with ampicillin were subcultures into 1.5 L of Luria-Bertani, and shaken at 37° C. until an optical density at 600 nm of 0.4-0.5 was achieved. Protein expression was induced with Isopropyl β-D-1-thiogalactopyranoside (ITPG) at a final concentration of […], and purified using nickel affinity chromatography. Full length His-tagged S. aureus SPase protein was expressed similarly from E. coli BL21(DE3) containing the plasmid pCDF1-SaSpsB or pCDF1-SaSpsB(P29S) and purified similarly to the E. coli protein with the following exceptions. SPase protein was solubilized using 300 mM NaCl, 20 mM Tris pH 8.06, 5 mM Imidazole, 10% glycerol, 1% Triton X-100, prior to purification in Ni-NTA Superflow resin and resin bound protein was washed in a similar buffer containing 1% Elugent in place of Triton X-100 prior to protein eluted in wash buffer supplemented with 300 mM imidazole. Protein purify was judged to exceed 95% by visual inspection of SDS-PAGE followed by Comassie staining. All protein concentrations were determined by BCA assay.
# (§3) Steady state binding constants (Kds) of compounds were determined by measuring an increase in fluorescence (λex=280 nm, λem=405 nm) that occurs upon binding to E. coli or S. aureus SPase protein. Two-fold serial dilutions of compounds were prepared in 100% DMSO, and compounds were diluted into binding buffer consisting of 100 mM NaCl, 20 mM Tris-HCl pH 7.4, 1 mM EDTA, 1% n-octyl-3-glucopyranoside (Anatrace), and 10% glycerol, with the final DMSO concentration equal to 1%. 70 μl of the resulting solutions containing various concentrations of compound in binding buffer were aliquoted into triplicate wells of a black polystyrene 384-well plate. 5 μl of blank solution or E. coli or S. aureus protein at concentrations of 750 or 3750 nM respectively, were added to each set of wells for a given inhibitor concentration. Plates were incubated for 14 hours and fluorescence read on an EnVision Multilable plate reader (Perkin Elmer™). Differences in fluorescence values between wells with and without protein were determined and background corrected for protein auto fluorescence. The corrected fluorescence difference data was fit to the quadratic equilibrium binding curve using the non-linear regression analysis software Solver (Frontline Systems®) run in Excel 2010, (Microsoft®), using experimentally determined quantum efficiency constants to convert fluorescence into nanomoles of protein/compound complex.
# E. coli SPase = target: T2, E. coli SPase (Escherichia coli, UniProt P00803); assay: as above
# T2 construct: Full length His-tagged E. coli SPase proteins were expressed in E. coli BL21(DE3); His-tag; made in house; host or cells: E. coli BL21(DE3)
# Procedure: as §2, §3
# R. equi DSM 6939 = assay: In vitro antimicrobial activity, MIC by broth micro-dilution; assay type: cell-based
# Method in brief: as §1
# E. coli MIG1655 = assay: as above; assay type: cell-based
# Method in brief: as §1
# P. aeruginosa PA01 = assay: as above; assay type: cell-based
# Method in brief: as §1
# [7] = Streptococcus agalactiae, COH1, S. agalactiae COH-1, read-out: MIC
# [8] = Staphylococcus aureus, ATCC29213, read-out: MIC
# [9] = Streptococcus pyogenes, ATCC19615, read-out: MIC
# [10] = Staphylococcus epidermidis, read-out: MIC
# [11] = Streptococcus pneumoniae, read-out: MIC
# [12] = Streptococcus agalactiae, ATCC13813, read-out: MIC
# [13] = Staphylococcus aureus, NCTC8325
# [14] = Corynebacterium glutamicum, DSM44475, read-out: MIC
# [15] = Streptococcus pyogenes, S. pyogenes M15448, read-out: MIC
# [16] = Staphylococcus epidermidis, ATCC12228, read-out: MIC
# [17] = S. epidermidis RP62A SpsIB(S31P)
# [18] = S. epidermidis RP62A SpsIB(S29P)
# [19] = Rhodococcus (subgen. Prescottella) equi, DSM6939, read-out: MIC
SMILES,MIC ([1]; Staphylococcus epidermidis) [µg/mL],MIC (S. agalactiae COH-1; [7]) [µg/mL],MIC (S. aureus ATCC 29213; [8]) [µg/mL],MIC (S. pyogenes ATCC 19615; [9]) [µg/mL],MIC (S. epidermidis RP62A; [10]) [µg/mL],MIC (S. pneumoniae R800; [11]) [µg/mL],MIC ([2]; Staphylococcus epidermidis) [µg/mL],MIC (S. agalactiae ATCC 13813; [12]) [µg/mL],"MIC [3, 13] [µg/mL]",MIC (C. glutamicum DSM 44475; [14]) [µg/mL],MIC (S. pyogenes M15448; [15]) [µg/mL],MIC ([4]; Escherichia coli) [µg/mL],"MIC [5, 16] [µg/mL]",MIC (S. pneumoniae D39; [11]) [µg/mL],MIC ([6]; Pseudomonas aeruginosa) [µg/mL],Kd (S. aureus SPase) [µM],Kd (E. coli SPase) [µM],"MIC [1, 17] [µg/mL]",MIC (S. agalactiae COH-1; S. agalactiae COH-1) [µg/mL],MIC (S. aureus ATCC 29213) [µg/mL],further results
CCCCCCCCCCCCCCCC(=O)N(C)[C@H](CO)C(=O)N[C@H](C)C(=O)NCC(=O)N(C)[C@@H]1C(=O)N[C@@H](C)C(=O)N[C@H](C(=O)N[C@@H](C)C(=O)O)Cc2ccc(O)c(c2)-c2cc1ccc2O [Compound 20],> 64,> 64,> 64,32,4,32,32,32,> 64,64,64,32,32,16,> 64,7.8,12,–,–,–,–
CCCCCCCCCCCCCCCC(=O)N(C)[C@H](CO)C(=O)N[C@H](C)C(=O)NCC(=O)N(C)[C@@H]1C(=O)N[C@@H](C)C(=O)N[C@H](C(=O)NS(C)(=O)=O)Cc2ccc(O)c(c2)-c2cc1ccc2O [Compound 22],> 64,–,> 64,16,2,16,> 64,32,> 64,8,–,16,> 64,16,> 64,19,1,–,–,–,"MIC (S. agalactiae COH-1; Streptococcus agalactiae, COH1): > 64 µg/mL; MIC (S. pyogenes M15448; Streptococcus pyogenes, M15448): 16 µg/mL"
CCCCCCCCCCCCCCCC(=O)N(C)[C@H](CO)C(=O)N[C@H](C)C(=O)NCC(=O)N(C)[C@@H]1C(=O)N[C@@H](C)C(=O)N[C@H](C(=O)N[C@@H](C)C(=O)NS(C)(=O)=O)Cc2ccc(O)c(c2)-c2cc1ccc2O [Compound 23],–,–,–,–,–,–,–,–,–,–,–,–,–,–,–,–,–,>64,>64,>64,"MIC (S. pyogenes ATCC 19615): 16 µg/mL; MIC (S. epidermidis RP62A): 2 µg/mL; MIC (S. pneumoniae R800): 8 µg/mL; MIC [2, 18]: 16 µg/mL; MIC (S. agalactiae ATCC 13813): 32 µg/mL; MIC ([3]; S. aureus NCTC-8325 SpsB(P295)): 8 µg/mL; MIC (C. glutamicum DSM 44475): 8 µg/mL; MIC (S. pyogenes M15448; S. pyogenes M15448): 16 µg/mL; MIC (R. equi DSM 6939): >64 µg/mL; MIC ([4]; E. coli MIG1655 LepB(P84L)): 8 µg/mL; MIC [5]: 8 µg/mL; MIC (S. pneumoniae D39): 8 µg/mL; MIC ([6]; P. aeruginosa PA01 LepB(P84L)): >64 µg/mL; Kd (S. aureus SPase; in vitro equilibrium Kd, read-out: Kd S. aureus SPase): 8.9 µM; Kd (E. coli SPase; in vitro equilibrium Kd, read-out: Kd E. coli SPase): 3 µM"
CCCCCCCCCCCCCCCC(=O)N(C)[C@H](CO)C(=O)N[C@H](C)C(=O)NCC(=O)N(C)[C@@H]1C(=O)N[C@@H](C)C(=O)N[C@H](C(=O)NCC(=O)O)Cc2ccc(O)c(c2)-c2cc1ccc2O [Compound 24],> 64,> 64,> 64,8,2,8,> 64,64,32,64,16,4,32,4,32,2.9,1.1,–,–,–,MIC (R. equi DSM 6939; [19]): > 64 µg/mL
CCCCCCCCCCCCCCCC(=O)N(C)[C@H](CO)C(=O)N[C@H](C)C(=O)NCC(=O)N(C)[C@@H]1C(=O)N[C@@H](C)C(=O)N[C@H](C(=O)NC(C)C=O)Cc2ccc(O)c(c2)-c2cc1ccc2O (stereo partly shown) [Compound 33],64,64,> 64,16,64,32,64,> 64,64,64,16,64,> 64,32,> 64,–,–,–,–,–,"MIC (E. coli MIG1655; Escherichia coli, MIG1655): > 64 µg/mL; MIC (R. equi DSM 6939; [19]): 64 µg/mL; MIC (P. aeruginosa PA01; Pseudomonas aeruginosa, read-out: MIC): > 64 µg/mL"
CCCCCCCCCCCCCCCC(=O)N[C@H](CC(N)=O)C(=O)N[C@H](C)C(=O)NCC(=O)N(C)[C@@H]1C(=O)N[C@@H](C)C(=O)N[C@H](C(=O)O)Cc2ccc(O)c(c2)-c2cc1ccc2O [Compound 34],–,–,–,–,–,–,–,–,–,–,–,–,–,–,–,–,–,>64,>64,>64,"MIC (S. pyogenes ATCC 19615): >64 µg/mL; MIC (S. epidermidis RP62A): >64 µg/mL; MIC (S. pneumoniae R800): >64 µg/mL; MIC (E. coli MIG1655; E. coli MIG1655): >64 µg/mL; MIC [2, 18]: >64 µg/mL; MIC (S. agalactiae ATCC 13813): >64 µg/mL; MIC ([3]; S. aureus NCTC-8325 SpsB(P295)): >64 µg/mL; MIC (C. glutamicum DSM 44475): >64 µg/mL; MIC (S. pyogenes M15448; S. pyogenes M15448): >64 µg/mL; MIC (R. equi DSM 6939): >64 µg/mL; MIC ([4]; E. coli MIG1655 LepB(P84L)): >64 µg/mL; MIC (P. aeruginosa PA01): >64 µg/mL; MIC [5]: >64 µg/mL; MIC (S. pneumoniae D39): >64 µg/mL; MIC ([6]; P. aeruginosa PA01 LepB(P84L)): >64 µg/mL"
